Assay results from patent US12653191B2, “Active compound combinations” (Bayer Aktiengesellschaft, priority 2020, dated 2026).
Read-outs that look alike come from different tables or passages of the source.

What was measured:
Colletotrichum coccodes = assay: in vitro-Test with fungal microorganisms, Method B (tables J1-J11); assay type: cell-based; details: Colletotrichum coccodes, read-out: Efficacy %; for inhibition of growth at 1 ppm: single active compound at 1 ppm
Outline: (§1)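 Efficacy, relative to untreated control (0% = growth as in control, 100% = no growth), from photometric growth measurement at 600 nm after 3 to 7 days at 20° C., 85% relative humidity. Compound applied in methanol+emulsifier, solvent evaporated, then spore/mycelium-amended liquid medium added.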

Cercospora beticola [1] = assay: in vitro-Test with fungal microorganisms, Method A (tables C1-C10); assay type: cell-based; details: Cercospora beticola, read-out: Efficacy %
Outline: (§2)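 Methanol/emulsifier compound solution evaporated in well; liquid potato dextrose medium + spore or mycelium suspension added; 20° C, 85% RH, 3-5 d; photometric read 620 nm; % efficacy vs untreated.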

Cercospora beticola [2] = assay: in vitro-Test with fungal microorganisms, Method B (tables C11-C20); assay type: cell-based; details: Cercospora beticola, single compound, read-out: Efficacy %
Outline: as §1

Fusarium culmorum [3] = assay: in vitro-Test with fungal microorganisms, Method B (tables G5-G15); assay type: cell-based; details: Fusarium culmorum, read-out: Efficacy
Outline: as §1

[4] = test system: Colletotrichum lindemuthianum; assay: in vitro-Test with fungal microorganisms, Method A (tables D1-D8); assay type: cell-based; details: Colletotrichum lindemuthianum, read-out: Efficacy %
Outline: as §2

Cordana musae [5] = assay: in vitro-Test with fungal microorganisms, Method B (tables E9-E16); assay type: cell-based; details: Neocordana musae, single active, read-out: Efficacy
Outline: as §1

Alternaria alternate = assay: in vitro-Test with fungal microorganisms, Method A (tables A1-A12); assay type: cell-based, Alternaria alternata; details: Alternaria, applied alone, read-out: Efficacy %
Outline: as §2

Fusarium culmorum [6] = assay: in vitro-Test with fungal microorganisms, Method A (tables G1-G4); assay type: cell-based; details: Fusarium culmorum, alone, read-out: Efficacy
Experimental: (§3) Example: In Vitro-Test with Fungal Microorganisms
(§4) Wells of 96-well microtiter plates are filled with 10 μl of a preparation of test compound or compound combination in methanol+emulsifier alkylaryl-polyglycol-ether. Thereafter, the solvent is evaporated in a hood. At the next step, 100 μl of liquid potato dextrose medium is given into each well, that has been amended with an appropriate concentration of spores or mycelium suspension of the test fungus.
With the aid of a photometer, the extinction in all wells is measured at the wavelength of 620 nm.
The microtiter plates are incubated at 20° C. and 85% relative humidity. The inhibition of growth is determined again photometrically 3-5 days after the application. Efficacy is calculated in relation to the untreated control, 0% efficacy means fungal growth as high as in untreated control while 100% efficacy means no fungal growth is measured.
(§5) The data in tables A1 to A12, B1 to B14, C1 to C10, D1 to D8, E1 to E8, F1 to F11, G1 to G4, H1 to H4 and I1 to I5 were collected according to Method A. The data in tables A13 to A22, B15 to B18, C11 to C20, E9 to E16, F12 to F15, G5 to G15, H5 to H8, I6 to I11 and J1 to J11 were collected according to Method B.

Cordana musae [7] = assay: in vitro-Test with fungal microorganisms, Method A (tables E1-E8); assay type: cell-based
Outline: as §2

Parastagonospora nodorum = assay: in vitro-Test with fungal microorganisms, Method B (tables H5-H8); assay type: cell-based; details: Parastagonospora nodorum, read-out: Efficacy
Experimental: as §3
as §4, with “30” for “10”, “200” for “100”, “growth” for “potato dextrose”, “given,” for “given into each well,”
With the aid of a photometer, the extinction in all wells is measured at the wavelength of 600 nm.
The microtiter plates are incubated for 3 to 7 days at 20° C. and 85% relative humidity. After the incubation inhibition of growth is determined photometrically. Efficacy is calculated in relation to the untreated control, 0% efficacy means fungal growth as high as in untreated control while 100% efficacy means no fungal growth is measured.
as §5

Botrytis cinerea = assay: in vitro-Test with fungal microorganisms, Method A (tables B1-B14); assay type: cell-based; details: Botrytis cinerea
Outline: as §2

Diaporthe citri = assay: in vitro-Test with fungal microorganisms, Method A (tables F1-F11); assay type: cell-based; details: Diaporthe citri, read-out: Efficacy
Outline: as §2

[8] = test system: Ustilago segetum var. avenae; assay: in vitro-Test with fungal microorganisms, Method A (tables I1-I5); assay type: cell-based; details: alone, 0.8 ppm; read-out: Efficacy %
Outline: as §2

Alternaria alternata = assay: in vitro-Test with fungal microorganisms, Method B (tables A13-A22); assay type: cell-based; details: Alternaria alternata, single compound, 0.2 ppm; read-out: Efficacy
Outline: as §1

[9] = test system: Ustilago segetum var. avenae; assay: in vitro-Test with fungal microorganisms, Method B (tables I6-I11); assay type: cell-based; details: 1 ppm; read-out: Efficacy %
Outline: as §1

[10] = single active compound at 0.04 ppm

`CC(C)(C)C(O)(CCc1ccc(Cl)cc1)Cn1cncn1` (centres unmarked) [(1.021) tebuconazole, tebuconazole] was tested, and the inhibition of growth at 0.04 ppm (Colletotrichum coccodes; 0.04 ppm) was 0%, the inhibition of growth at 0.2 ppm (Colletotrichum coccodes; 0.2 ppm) was 4% and the inhibition of growth at 0.008 ppm (Colletotrichum coccodes; applied alone, 0.008 ppm) was 0%. For the same compound, the inhibition of growth at 0.04 ppm (Colletotrichum coccodes; applied alone, 0.04 ppm) was 0%, the inhibition of growth at 0.2 ppm (Colletotrichum coccodes; applied alone, 0.2 ppm) was 0% and the inhibition of growth at 0.008 ppm (Colletotrichum coccodes; single active compound at 0.008 ppm) was 0%. It also gave an inhibition of growth at 0.04 ppm (Colletotrichum coccodes; [10]) of 7%, an inhibition of growth at 1 ppm (Colletotrichum coccodes) of 87% and an inhibition of growth at 0.008 ppm (Cercospora beticola [1]; 0.008 ppm alone) of 12%. For the same compound, the inhibition of growth at 0.04 ppm (Cercospora beticola [1]; 0.04 ppm alone) was 32%, the inhibition of growth at 0.2 ppm (Cercospora beticola [1]; 0.2 ppm alone) was 100% and the inhibition of growth at 0.008 ppm (Cercospora beticola [2]; 0.008 ppm) was 4%. The inhibition of growth at 0.04 ppm (Cercospora beticola [2]) was 1%, the inhibition of growth at 0.2 ppm (Cercospora beticola [2]; 0.2 ppm) was 62% and the inhibition of growth at 1 ppm (Fusarium culmorum [3]; alone) was 79%. For the same compound, the inhibition of growth at 0.008 ppm ([4]; mixing partner alone, 0.008 ppm) was 32%, the inhibition of growth at 0.04 ppm ([4]; mixing partner alone, 0.04 ppm) was 0% and the inhibition of growth at 0.2 ppm ([4]; mixing partner alone, 0.2 ppm) was 17%. For the same compound, the inhibition of growth at 1 ppm ([4]; mixing partner alone, 1.0 ppm) was 35%, the inhibition of growth at 0.008 ppm ([4]; single active at 0.008 ppm) was 0% and the inhibition of growth at 0.04 ppm ([4]; single active at 0.04 ppm) was 13%. For the same compound, the inhibition of growth at 0.2 ppm ([4]; single active at 0.2 ppm) was 0%, the inhibition of growth at 1 ppm ([4]; single active at 1.0 ppm) was 4% and the inhibition of growth at 0.04 ppm (Cordana musae [5]) was 2%. It also gave an inhibition of growth at 0.2 ppm (Cordana musae [5]; 0.2 ppm) of 25%, an inhibition of growth at 1 ppm (Cordana musae [5]) of 71% and an inhibition of growth at 0.008 ppm (Alternaria alternate; 0.008 ppm) of 13%. For the same compound, the inhibition of growth at 0.04 ppm (Alternaria alternate; 0.04 ppm) was 19%, the inhibition of growth at 0.2 ppm (Alternaria alternate; 0.2 ppm) was 26% and the inhibition of growth at 0.008 ppm (Fusarium culmorum [6]; 0.008 ppm) was 8%. For the same compound, the inhibition of growth at 0.04 ppm (Fusarium culmorum [6]; 0.04 ppm) was 21%, the inhibition of growth at 1 ppm (Fusarium culmorum [6]; 1.0 ppm) was 98% and the inhibition of growth at 0.04 ppm (Cordana musae [7]; Neocordana musae, mixing partner alone, 0.04 ppm, read-out: Efficacy %) was 0%. The inhibition of growth at 0.2 ppm (Cordana musae [7]; Neocordana musae, mixing partner alone, 0.2 ppm, read-out: Efficacy %) was 29%, the Efficacy % (Cordana musae [7]; mixing partner alone, 1.0 ppm) was 99% and the inhibition of growth at 0.008 ppm (Parastagonospora nodorum; 0.008 ppm) was 0%. It also gave an inhibition of growth at 0.04 ppm (Parastagonospora nodorum) of 0%, an inhibition of growth at 0.2 ppm (Parastagonospora nodorum; 0.2 ppm) of 60% and an inhibition of growth at 1 ppm (Parastagonospora nodorum; 1 ppm) of 100%. For the same compound, the inhibition of growth at 0.04 ppm (Botrytis cinerea; read-out: Efficacy) was 0%, the inhibition of growth at 0.2 ppm (Botrytis cinerea; read-out: Efficacy) was 37% and the inhibition of growth at 1 ppm (Botrytis cinerea; 1.0 ppm, read-out: Efficacy) was 94%. For the same compound, the inhibition of growth at 0.008 ppm (Botrytis cinerea; alone, 0.008 ppm, read-out: Efficacy %) was 0%, the inhibition of growth at 0.04 ppm (Botrytis cinerea; alone, read-out: Efficacy %) was 0% and the inhibition of growth at 0.2 ppm (Botrytis cinerea; alone, read-out: Efficacy %) was 45%. It also gave an inhibition of growth at 0.008 ppm (Diaporthe citri; applied alone, 0.008 ppm) of 28% and an inhibition of growth at 0.2 ppm (Diaporthe citri; applied alone, 0.2 ppm) of 89%.
`O=C1C2CC=CCC2C(=O)N1SC(Cl)(Cl)Cl` (centres unmarked) [(5.003) captan, captan] was tested, and the inhibition of growth at 0.8 ppm [8] was 0%, the inhibition of growth at 0.2 ppm (Alternaria alternata) was 0% and the inhibition of growth at 0.2 ppm (Colletotrichum coccodes; 0.2 ppm) was 0%. For the same compound, the inhibition of growth at 0.04 ppm (Colletotrichum coccodes; [10]) was 53%, the inhibition of growth at 0.2 ppm (Colletotrichum coccodes; single active compound at 0.2 ppm) was 0% and the inhibition of growth at 1 ppm (Colletotrichum coccodes) was 0%. It also gave an inhibition of growth at 5 ppm (Colletotrichum coccodes; single active compound at 5 ppm) of 100%, an inhibition of growth at 0.8 ppm (Cercospora beticola [1]; 0.8 ppm alone) of 0% and an inhibition of growth at 0.8 ppm (Cercospora beticola [1]; 0.8 ppm) of 0%. For the same compound, the inhibition of growth at 4 ppm (Cercospora beticola [1]; 4.0 ppm) was 100%, the inhibition of growth at 20 ppm (Cercospora beticola [1]; 20.0 ppm) was 100% and the inhibition of growth at 0.04 ppm (Cercospora beticola [2]) was 0%. For the same compound, the inhibition of growth at 0.4 ppm (Cercospora beticola [2]; 0.4 ppm) was 0%, the inhibition of growth at 5 ppm (Cercospora beticola [2]; 5 ppm) was 100% and the inhibition of growth at 0.04 ppm (Fusarium culmorum [3]; single active compound, 0.04 ppm) was 0%. The inhibition of growth at 0.2 ppm (Fusarium culmorum [3]; single active compound, 0.2 ppm) was 16%, the inhibition of growth at 1 ppm (Fusarium culmorum [3]; single active compound) was 18% and the inhibition of growth at 5 ppm (Fusarium culmorum [3]; single active compound, 5 ppm) was 100%. For the same compound, the inhibition of growth at 0.8 ppm ([4]; mixing partner alone, 0.8 ppm) was 3%, the inhibition of growth at 4 ppm ([4]; mixing partner alone, 4.0 ppm) was 100% and the inhibition of growth at 20 ppm ([4]; mixing partner alone, 20.0 ppm) was 100%. The inhibition of growth at 0.8 ppm ([4]; single active at 0.8 ppm) was 0%, the inhibition of growth at 4 ppm ([4]; single active at 4.0 ppm) was 100% and the inhibition of growth at 20 ppm ([4]; single active at 20.0 ppm) was 100%. For the same compound, the inhibition of growth at 0.04 ppm (Cordana musae [5]) was 0%, the inhibition of growth at 1 ppm (Cordana musae [5]) was 0% and the inhibition of growth at 5 ppm (Cordana musae [5]; 5 ppm) was 100%. It also gave an inhibition of growth at 20 ppm (Alternaria alternate; 20 ppm) of 56%, an inhibition of growth at 0.8 ppm (Fusarium culmorum [6]; 0.8 ppm) of 0% and an inhibition of growth at 4 ppm (Fusarium culmorum [6]; 4.0 ppm) of 100%. For the same compound, the inhibition of growth at 20 ppm (Fusarium culmorum [6]; 20.0 ppm) was 100%, the inhibition of growth at 1 ppm [9] was 28% and the inhibition of growth at 4 ppm (Cordana musae [7]; Neocordana musae, mixing partner alone, read-out: Efficacy %) was 0%. The inhibition of growth at 4 ppm (Cordana musae [7]; Neocordana musae, single substance, read-out: Efficacy %) was 100%, the inhibition of growth at 20 ppm (Cordana musae [7]; Neocordana musae, single substance, 20.0 ppm, read-out: Efficacy %) was 100% and the inhibition of growth at 0.04 ppm (Parastagonospora nodorum) was 0%. For the same compound, the inhibition of growth at 0.8 ppm (Botrytis cinerea; read-out: Efficacy) was 0%, the inhibition of growth at 4 ppm (Botrytis cinerea; 4.0 ppm, read-out: Efficacy) was 0% and the inhibition of growth at 20 ppm (Botrytis cinerea; read-out: Efficacy) was 7%. It also gave an inhibition of growth at 0.8 ppm (Botrytis cinerea; alone, read-out: Efficacy %) of 0%, an inhibition of growth at 20 ppm (Botrytis cinerea; alone, read-out: Efficacy %) of 100% and an inhibition of growth at 0.8 ppm (Diaporthe citri; Table F10, 0.8 ppm alone) of 18%. For the same compound, the inhibition of growth at 4 ppm (Diaporthe citri; Table F10, 4.0 ppm alone) was 100%, the inhibition of growth at 20 ppm (Diaporthe citri; Table F10, 20.0 ppm alone) was 100% and the inhibition of growth at 0.8 ppm (Diaporthe citri; applied alone, 0.8 ppm) was 9%. The inhibition of growth at 4 ppm (Diaporthe citri; applied alone, 4.0 ppm) was 99%, the inhibition of growth at 0.8 ppm (Diaporthe citri; single active, 0.8 ppm) was 24% and the inhibition of growth at 4 ppm (Diaporthe citri; single active, 4.0 ppm) was 88%.
